Counter-ions that a name gives are not always drawn.
Test system: HCMV proteins IE1/2, UL44 and pp65
Test: Western blot of HCMV protein expression
Assay type: cell-based, human cytomegalovirus (HCMV)
Conditions: 72 hpi
Excerpt: SDS-polyacrylamide gel electrophoresis and immunoblot analysis. Cell lysates were quantified for protein content using bicinchoninic acid (BCA) protein assay kit (Pierce Chemical, Rockford, IL). Equivalent amount of proteins were used for Western blot analysis as described previously. Protein bands were visualized by chemiluminescence using Western Blotting Luminol Reagent (Santa Cruz Biotechnology, Santa Cruz, CA). The following antibodies were used for detection of HCMV proteins: mouse anti-IE1 and IE2, (MAb810); mouse anti-UL44 (Santa Cruz biotechnology Santa Cruz, CA); mouse monoclonal anti-pp65 (Vector laboratories, Burlingame, CA); mouse monoclonal anti-β-actin antibody (Millipore, Billerica, MA); rabbit polyclonal anti-RPS14 and mouse monoclonal anti-MDM2 (AbCam, Cambridge, UK), mouse monoclonal anti-p53 (Santa Cruz, CA); horseradish peroxidase (HRP)-conjugated goat anti-rabbit IgG (Cell Signaling); and HRP-conjugated sheep anti-mouse IgG, (GE Healthcare, Waukesha, WI). For detection of co-immunoprecipitated proteins, protein A-HRP conjugate (Cell Signaling Technologies, Beverly, MA) was used as secondary antibody to eliminate the interfering IgG bands.

**Q.** How did the “expression of HCMV proteins IE1/2, UL44 and pp65” value turn out when `CC[C@H]1CN2CCc3cc(OC)c(OC)cc3[C@@H]2C[C@@H]1C[C@H]1NCCc2cc(OC)c(OC)cc21` [emetine, emetine dihydrochloride hydrate] was run?
**A.** significantly reduced

**Q.** And the “viral UL44 and pp65 expression at high cell density” value (emetine 75 nM, vs infected untreated cells, not at lower cell density)?
**A.** significant reduction
